Assay results taken from US20190166840A1, “SUBSTITUTED PYRAZOLINYL DERIVATIVES, PROCESSES FOR THEIR PREPARATION AND THEIR USE AS HERBICIDES AND/OR PLANT GROWTH REGULATORS” (BAYER CROPSCIENCE AKTIENGESELLSCHAFT, priority 2016, published 2019).

What was measured:
photosystem II (PS II) = target: T1, photosystem II (PS II) (Spinacia oleracea, UniProt P69560); experiment: Activity determination of photosystem II (PS II) in thylakoid membranes, DCPIP reduction; type: biochemical; conditions: spinach thylakoid membranes, DCPIP 120 μM, 10 min at 22° C. with illumination
T1 construct: the chloroplasts were osmotically ruptured and the thylakoid membranes were then obtained by centrifugation; from tissue; host or cells: spinach leaves (thylakoid membrane preparation)
Protocol: Measurement of PS II Activity in Thylakoid Membranes
1. Preparation of the Thylakoid Membranes
Cooled fresh spinach leaves were comminuted and homogenized in 50 mM phosphate buffer, pH 6.8, 10 mM KCl, 0.34 M sucrose (sucrose buffer) (mixer, 1 g of plant material/ml). The homogenate was subsequently filtered through 4 layers of Miracloth and the chloroplasts were obtained by centrifugation: • 10 minutes (min) of centrifugation at 4400×g (4° C.). • The sediment was suspended in 25 ml of sucrose buffer and centrifuged for another 10 min at 4400×g (4° C.). • The sediment was then suspended in 40 ml of 50 mM phosphate buffer, pH 6.8, 10 mM KCl, without sucrose. • In this step, the chloroplasts were osmotically ruptured and the thylakoid membranes were then obtained by centrifugation (10 min, 4400×g, 4° C.). The membrane sediment was finally suspended in about 20 ml of 50 mM phosphate buffer, pH 6.8, 10 mM KCl. • After protein determination and activity determination, the membrane suspension was aliquoted and frozen in liquid nitrogen. The aliquots were stored at −80° C. Under these conditions, the photosystem II preparation is storage-stable for at least three months.
2. Activity Determination of the Photosystem II (PS II)
The electron transfer from PS II to an artificial electronic captor, 2,6-dichlorophenol-indophenol (DCPIP), is measured under the action of light. The concentration of the blue oxidized form of DCPIP can be determined spectraphotometrically at the wavelength l=595 nm. The enzyme-catalyzed reduction of DCPIP results in a colourless leuco form and thus to a decrease of absorption at 595 nm in the reaction batch, which is measured as a function of time.
The activity determination was carried out in microtiter plates (96 wells) in a reaction volume of 200 μl. 155 μl of dilute membrane suspension in 50 mM phosphate buffer, pH 6.8, 10 mM KCl were initially charged. Depending on the activity of the PS II preparation, the dilution was adjusted such that measurement of the decrease in absorption (λ=595 nm) was linear for at least 10 min.
Typical dilution series of the test compounds comprised 10 concentration steps in the range between 10^−9and 10^−5 M.
On each microtiter plate, a known PS II inhibitor, e.g. metribuzin, was used as standard for assessing the quality of the PS II test.
The reaction was initiated by addition of 40 μl DCPIP solution (600 μM in distilled water); the final concentration of DCPIP was 120 μM.
Absorption was measured over a period of 10 min at 22° C. and with illumination. For calculating the active compound concentration at which 50% of the enzyme activity is inhibited (IC50), the relative enzymatic activity (in %) was plotted as a function of the logarithm of the active compound concentration.

Setaria viridis = experiment: Post-emergence herbicidal action, SETVI; type: in vivo; conditions: one-leaf stage, application rate 1280 g/ha, scored visually after about 3 weeks
Protocol: (§1) Post-Emergence Herbicidal Activity Seeds of mono- and dicotyledonous weed plants and crop plants were placed in sandy loam in wood fibre pots, covered with soil and then cultivated in a greenhouse under good growth conditions. Two to 3 weeks after sowing, the test plants were treated at the one-leaf stage, with the formulated compounds of the general formula (I) according to the invention being sprayed as an aqueous suspension or emulsion at an application rate of 600 l of water/ha (converted) with addition of 0.2% wetting agent, onto the green parts of the plants. After the test plants had been left to stand in the greenhouse for about 3 weeks under optimum growth conditions, the activity of the preparations was scored visually in percent in comparison to untreated controls. For example, 100% activity=the plants have died, 50% herbicidal activity or damage=plants reduced to 50% or plant material reduced by 50%, 0% activity=like control plants. […] Here, the herbicidal action of the compounds of the general formula (I) according to the invention was examined for the following harmful plants: SETVI=Setaria viridis The respective herbicidal action was in each case determined at the same point in time after application of the formulation in question, i.e. damage of the harmful plant in question in %. […]

Ipomoea purpurea = experiment: Post-emergence herbicidal action, PHBPU; type: in vivo; conditions: one-leaf stage, application rate 1280 g/ha, scored visually after about 3 weeks
Protocol: as §1, with “PHBPU=Ipomoea purpurea” for “SETVI=Setaria viridis”

[1] = system: Polygonum convolvulus (=Fallopia convolvulus); experiment: Post-emergence herbicidal action, POLCO; type: in vivo; conditions: one-leaf stage, application rate 1280 g/ha, scored visually after about 3 weeks
Protocol: as §1, with “POLCO=Polygonum convolvulus (=Fallopia convolvulus)” for “SETVI=Setaria viridis”

Viola tricolor = experiment: Post-emergence herbicidal action, VIOTR; type: in vivo; conditions: one-leaf stage, application rate 1280 g/ha, scored visually after about 3 weeks
Protocol: as §1, with “VIOTR=Viola tricolor” for “SETVI=Setaria viridis”

Question: For `CC1=C(C)C(O)N(C2=NN(Cc3ccccc3)C(C)(C)C2)C1=O` (stereo not drawn) [I.2-217], which pI50 (photosystem II (PS II)) is on record?
Answer: 5.4

Question: With `CC1=C(C)C(O)N(C2=NN(c3ccccc3)C(C)C2)C1=O` (stereo not drawn) [I.2-321] as the compound, how does the IC50 (photosystem II (PS II); read-out: pI50 (converted)) read?
Answer: 7.94 µM

Question: For `CC1=C(C)C(O)N(C2=NN(c3ccccn3)C(C)C2)C1=O` (stereo not drawn) [I.2-432], which “Post-emergence herbicidal action SETVI, damage of the harmful plant” value (Setaria viridis) is on record?
Answer: 80%

Question: And the “Post-emergence herbicidal action PHBPU, damage of the harmful plant” value (Ipomoea purpurea)?
Answer: 0%

Question: What about the “Post-emergence herbicidal action POLCO, damage of the harmful plant” value [1] of the same compound?
Answer: 0%

Question: What about the “Post-emergence herbicidal action VIOTR, damage of the harmful plant” value (Viola tricolor) of the same compound?
Answer: 80%

Question: `CC1=C(Cl)C(=O)N(C2=NN(c3ccccc3)C(C)C2)C1O` (stereo not drawn) [I.3-321] was tested. Which pI50 (photosystem II (PS II)) did it give?
Answer: 5.4

Question: For `CC1=C(Cl)C(=O)N(C2=NN(C)C(c3ccc(Cl)cc3)C2)C1O` (stereo not drawn) [I.3-1351], which pI50 (photosystem II (PS II)) is on record?
Answer: 5.5

Question: `CC1=C(Br)C(=O)N(C2=NN(c3ccccc3)CC2)C1O` (stereo not drawn) [I.8-621] was tested. Which pI50 (photosystem II (PS II)) did it give?
Answer: 5.3

Question: And the “Post-emergence herbicidal action SETVI, damage of the harmful plant” value (Setaria viridis)?
Answer: 60%

Question: What about the “Post-emergence herbicidal action PHBPU, damage of the harmful plant” value (Ipomoea purpurea) of the same compound?
Answer: 90%

Question: What about the “Post-emergence herbicidal action POLCO, damage of the harmful plant” value [1] of the same compound?
Answer: 90%

Question: What about the “Post-emergence herbicidal action VIOTR, damage of the harmful plant” value (Viola tricolor) of the same compound?
Answer: 80%

Question: For `CC1=C(Br)C(=O)N(C2=NN(C)C(c3ccccc3)C2)C1O` (stereo not drawn) [I.8-1126], which pI50 (photosystem II (PS II)) is on record?
Answer: 5.1

Question: `CC1=C(Br)C(=O)N(C2=NN(C)C(c3ccc(Cl)cc3)C2)C1O` (stereo not drawn) [I.8-1351] was tested. Which pI50 (photosystem II (PS II)) did it give?
Answer: 5.7
